From ChEMBL document CHEMBL1151325, “New xenia diterpenes isolated from the soft coral, xenia florida” (J Nat Prod, 1998)
Activity calls are given as the source filed them. No cut-off for these calls is given here.

What was measured:
[1] = system: Aeromonas salmonicida; test: Antibacterial activity against Aeromonas salmonicida at 100 ug/disk by paper disk method; assay type: functional, organism-based
[2] = system: Staphylococcus aureus; test: Antibacterial activity against Staphylococcus aureus at 100 ug/disk by paper disk method; assay type: functional, organism-based

| Structure (SMILES) | Activity [1] | Activity [2] |
| --- | --- | --- |
| CC(C)/C=C/C=C1/COC(=O)[C@@H]2[C@@H]1CC[C@@]1(C)C[C@]2(O)CC[C@@H]1O | Active | Active |
| C=C1CC[C@@H]2O[C@@]2(C)CC[C@@H]2/C(=C\C=C\C(C)C)COC(=O)[C@@H]12 | Active | Active |
